Like-named read-outs stand apart in the source and are kept apart here.
Columns and labels:
[1] = target: T1, recombinant human Tie-2 protein (Homo sapiens, UniProt Q02763); assay: Z′-Lyte FRET enzymatic activity assay of Tie-2 kinase; assay type: biochemical; settings: for Tie-2 inhibitory activity in words (active / inactive): VS candidates of Strategy 1, preliminary screening at 10 μg/mL; for inhibition at 5 µg/mL: read-out: Kinase Inhibition (%) at 5 μg/mL (± SD)
T1 construct: purchased Thermo Fisher Scientific Inc. PV3628
Protocol: In order to assess the biological inhibitory activity of the VS compounds, Z’-Lyte enzymatic activity assay based on FRET (Fluorescence Resonance Energy Transfer) technology was developed as described above. […] At first, all the compounds obtained from both filtering strategies were preliminary screened for their ability to inhibit Tie-2 kinase activity at the concentration of 10 μg/mL.
The Tie-2 kinase inhibitor (CAS#: 948557-43-5, purity ≥ 97%) was purchased from Merck Calbiochem (Darmstadt, Germany) and used as a positive control inhibitor in bioassays[40]. […] All the purchased screening compounds were firstly dissolved in dimethyl sulfoxide (DMSO) at a stock concentration of 5 mg/ml. The final working concentration of DMSO is less than 1%.
Compounds were tested for their ability to inhibit Tie-2 kinase activity using Z′-Lyte® kinase assay kit (ser/thr 5 peptide) with NUNC 384-well plate. In the first step, the test compounds and ATP solution were firstly prepared at 4 × desired concentration. The mixture of recombinant human Tie-2 protein and non-phosphorylated peptide at 2 × desired concentration was prepared in kinase reaction buffer A consisting of 50 mM HEPES (pH 7.5), 0.01% BRIJ-35, 10 mM MgCl2, 4 mM MnCl2, 1 mM EGTA and 2 mM DTT. Reactions were then carried out in a solution containing 2.5 μL test compounds, 5 μL Tie-2/Tyr 05 peptide mixture (10 ng Tie-2 and 2 μM Tyr 05 peptide) and 2.5 μL ATP (100 μM). Then, the assay plate was shaken for 30 seconds on a plate shaker, and incubated for 1 hour at room temperature (20~25 °C). After sufficient kinase reactions, 5 μL development reagent A was added to each well, and the plate was incubated for another hour. Finally, 5 μL stop reagent was added to terminate the reactions, and the coumarin and fluorescein emission signals (excitation: 400 nm; emission: 445 and 520 nm, respectively) were measured on a fluorescence plate reader (BioTek Synergy 4).

Tie-2 = system: Tie-2; design: method as in PMID 17618114; settings: tool inhibitor; read-out: IC50 against Tie-2, previously reported; cited from earlier work
[2] = 10 μg/mL preliminary screening, Table S1
[3] = Z′-Lyte assay, 100 μM ATP, n ≥ 2 per concentration, read-out: IC50 (half-maximal inhibitory concentration), Tie-2 kinase

T1 sequence (Q02763 23-1124): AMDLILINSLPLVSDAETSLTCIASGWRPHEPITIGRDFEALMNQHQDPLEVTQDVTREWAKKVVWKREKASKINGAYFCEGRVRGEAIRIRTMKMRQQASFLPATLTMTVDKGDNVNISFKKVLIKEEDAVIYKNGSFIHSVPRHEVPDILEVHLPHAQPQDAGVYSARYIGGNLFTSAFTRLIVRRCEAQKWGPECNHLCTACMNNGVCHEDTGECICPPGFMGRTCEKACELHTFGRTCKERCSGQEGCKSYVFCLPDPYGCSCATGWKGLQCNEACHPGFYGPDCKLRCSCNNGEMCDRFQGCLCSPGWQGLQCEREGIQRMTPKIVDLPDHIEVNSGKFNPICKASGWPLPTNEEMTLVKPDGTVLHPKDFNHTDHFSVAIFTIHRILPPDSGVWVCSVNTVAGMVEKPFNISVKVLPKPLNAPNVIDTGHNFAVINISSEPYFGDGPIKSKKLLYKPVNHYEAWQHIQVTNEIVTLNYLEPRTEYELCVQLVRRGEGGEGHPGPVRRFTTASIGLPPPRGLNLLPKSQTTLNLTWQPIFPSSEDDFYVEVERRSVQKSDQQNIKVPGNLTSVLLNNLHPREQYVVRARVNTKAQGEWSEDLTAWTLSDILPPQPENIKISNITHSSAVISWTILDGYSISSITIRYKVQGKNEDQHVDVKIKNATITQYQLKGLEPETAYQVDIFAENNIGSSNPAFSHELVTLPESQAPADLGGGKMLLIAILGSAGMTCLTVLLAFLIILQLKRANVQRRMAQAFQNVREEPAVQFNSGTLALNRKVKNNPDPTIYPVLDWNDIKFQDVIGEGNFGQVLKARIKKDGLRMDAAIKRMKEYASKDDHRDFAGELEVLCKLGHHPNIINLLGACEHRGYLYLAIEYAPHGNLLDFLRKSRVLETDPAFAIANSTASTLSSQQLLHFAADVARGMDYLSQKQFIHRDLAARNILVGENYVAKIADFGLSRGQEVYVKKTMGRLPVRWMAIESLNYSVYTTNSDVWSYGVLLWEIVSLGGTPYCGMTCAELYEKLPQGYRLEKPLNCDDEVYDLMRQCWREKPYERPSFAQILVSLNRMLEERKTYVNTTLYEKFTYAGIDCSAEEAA

Row | SMILES | Inhibition (%) @10 μg/ml [1, 2] [%] | also measured
1 | Cc1ccccc1COc1ccc(-c2nnn(CC(=O)Nc3ccc4c(c3)OCO4)n2)cc1 [TP-C2-28] | 40.32±14.48 | –
2 | Cc1ccc(-c2cc(C(=O)OCC(=O)c3ccccc3)c3cccc(C)c3n2)cc1 [TP-C1-13] | 28.98±1.34 | Tie-2 inhibitory activity in words (active / inactive) [1]: inactive
3 | Cc1cc(NC(=S)NC(=O)c2ccc(Cl)c(Cl)c2)ccc1NC(=O)c1ccccc1 [TP-C3-29] | – | inhibition at 5 µg/mL ([1]; 5 μg/mL, n ≥ 2): 57.95 ± 0.29%; IC50 [1, 3]: 28.2 µM
4 | Cc1nc(-c2cccnc2)sc1C(=O)NCc1ccccn1 [TP-C2-60] | 66.88±8.04 | –
5 | O=C(c1n[nH]c(=O)c2ccccc12)N1CCOC(COc2ccccc2)C1 (stereo not shown) [TP-C2-59] | 74.19±1.14 | –
6 | CC1(C)CC(=O)C(C(=S)Nc2ccccc2)=C(NCc2ccc3c(c2)OCO3)C1 [TP-C2-13] | 84.95±3.24 | IC50 [1, 3]: 6.78 ± 0.36 µM
7 | Cc1cc(NC(=S)NC(=O)c2ccccc2C)ccc1NC(=O)c1ccccc1 [TP-C2-7] | 54.53±0.58 | –
8 | COc1ccc(C(=O)NC(=S)Nc2ccc(NC(=O)c3cccc(C)c3)cc2)cc1OC [TP-C2-9] | – | inhibition at 10 µg/mL [1, 2]: 81.6 ± 2.85%; IC50 [1, 3]: 1.86 ± 0.18 µM; IC50 ([1]; in the dose-response figure, read-out: IC50 (dose-dependent inhibitory effect), Tie-2 kinase (converted)): 1.87 µM
9 | COc1ccc(OC)c(Nc2nc(-c3cccc(NC(=O)c4ccccc4)c3)cs2)c1 [TP-C2-14] | 71.64±2.92 | –
10 | CC(C)(C)c1ccc(C(=O)Nc2ccc(NC(=S)NC(=O)c3ccccc3)cc2)cc1 [TP-C3-2] | – | inhibition at 5 µg/mL ([1]; 5 μg/mL, n ≥ 2): 33.4 ± 1.74%; IC50 [1, 3]: 27.1 µM; fold decrease in activity compared with compound TP-C3-3 ([1]; from IC50 values): ~ 10 fold
11 | Cn1c(=O)[nH]c(=O)c2c1nc(NCCCO)n2CC(O)COc1ccccc1 (stereo not shown) [TP-C2-2] | 51.41±2.9 | –
12 | O=c1cc(-c2ccccc2)c2ccc(OCc3cccc(C(F)(F)F)c3)cc2o1 [TP-C1-18] | 39.7±2.94 | Tie-2 inhibitory activity in words (active / inactive) [1]: inactive
13 | CC(C)CNC(=O)c1ccccc1NC(=O)c1ccccc1N(C)S(=O)(=O)c1ccccc1 [TP-C2-29] | 55.92±5.4 | –
14 | NS(=O)(=O)c1ccc(CCNC(=O)c2cc(-c3ccncc3)nc3ccc(Cl)cc23)cc1 [TP-C2-38] | 89.98±1.62 | IC50 [1, 3]: 7.88 ± 0.35 µM
15 | COc1ccc(-c2cc(-c3ccccc3)c(C#N)c(S(=O)(=O)Cc3ccccc3)n2)cc1 [TP-C1-35] | 69.07±3.54 | –
16 | c1ccc(-c2nnc(CSc3nnc(-c4ccncc4)[nH]3)o2)cc1 [TP-C1-53] | 28.39±0.73 | –
17 | COc1ccc2cc(-c3nc(-c4ccc([S+](C)[O-])cc4)[nH]c3-c3ccncc3)ccc2c1 (stereo not shown) [Tie-2 inhibitor, reference compound] | 95.2±1.58 | IC50 (Tie-2): 250 nM; Kinase Inhibition (%) at 5 μg/mL (± SD) ([1]; 5 μg/mL, n ≥ 2): 93.01 ± 1.02%
18 | CCOc1ccc(CN(CCc2ccc3c(c2)OCO3)Cc2ccc(C)cc2)cc1 [TP-C1-9] | 17.49±0.65 | –
19 | c1ccc(-c2cc(-c3ccc4c(c3)OCCO4)c(-c3ccccc3)nn2)cc1 [TP-C2-48] | 43.96±2.34 | –
20 | CCc1cc2c(-c3ccccc3)cc(=O)oc2cc1OCC(=O)c1ccc(F)cc1 [TP-C2-18] | 43.81±7.48 | –
21 | CCCCc1ccc(NC(=S)C2=C(NCc3ccc4c(c3)OCO4)CC(C)(C)CC2=O)cc1 [TP-C1-31] | 2.9±8.41 | Tie-2 inhibitory activity in words (active / inactive) [1]: inactive
22 | O=C(NC(=S)Nc1ccc(NC(=O)c2ccc(Cl)cc2Cl)cc1)c1ccccc1 [TP-C3-1] | – | inhibition at 5 µg/mL ([1]; 5 μg/mL, n ≥ 2): 63 ± 0.86%; IC50 [1, 3]: 1.85 µM
23 | O=C(NCCOc1ccccc1)c1n[nH]c(=O)c2ccccc12 [TP-C2-44] | 52.94±2.54 | –
24 | Cl.O=C(O)c1ccc(Cl)c(-c2ccc(CNCC(O)c3ccccc3)o2)c1 (stereo not shown) [TP-C1-55] | 20.01±0.68 | –
25 | O=C(c1cc(-c2ccncc2)nc2ccc(Br)cc12)N1CCN(Cc2ccc3c(c2)OCO3)CC1 [TP-C1-45] | 63.88±1.45 | –
26 | CC(=O)c1cccc(NC(=O)CSc2nnc(-c3ccccc3)c(=O)[nH]2)c1 [TP-C2-58] | 50.65±0.04 | –
27 | O=C(NCc1n[nH]c(=O)c2ccccc12)c1cc2ccccc2oc1=O [TP-C2-32] | 66.52±7.26 | –
28 | CCOc1cc(CNCCc2ccc(S(N)(=O)=O)cc2)ccc1OCc1ccccc1.Cl [TP-C2-42] | 23.47±2.17 | –
29 | Cc1ccc(C(=O)CSc2nc3ccccc3c(=O)n2N)o1 [TP-C2-43] | 55.24±1.85 | –
30 | Cc1cccc(C(=O)Nc2ccc(NC(=S)NC(=O)c3ccccc3Cl)cc2)c1 [TP-C3-45] | – | inhibition at 5 µg/mL ([1]; 5 μg/mL, n ≥ 2): 49.3 ± 0.95%; IC50 [1, 3]: 2.41 µM

The next lines start with results.

Row | Inhibition (%) @10 μg/ml [1, 2] [%] | SMILES | also measured
31 | 49.58±1.56 | COc1cccc(OC)c1C(=O)NC(=S)Nc1ccc(NC(=O)c2ccco2)c(Cl)c1 [TP-C1-49] | –
32 | 64.42±0.23 | O=C(COc1ccc(S(=O)(=O)N2CCc3ccccc32)cc1)NCc1cccnc1 [TP-C2-52] | –
33 | 61.34±20.45 | Cc1ccccc1C(=O)Nc1cccc(Oc2ccc3c(c2)C(=O)NC3=O)c1 [TP-C2-26] | –
34 | 48.64±1.91 | O=C(Nc1ccc2c(c1)OCCO2)C1CC(=O)N(CCc2c[nH]c3ccc(F)cc23)C1 (stereo not shown) [TP-C2-57] | –
35 | 74.86±1.02 | Cc1ccc2c(c1)C(Cc1nc3ccccc3c(=O)n1CCc1ccccc1)C(=O)N2 (stereo not shown) [TP-C2-56] | –
36 | -46.75±1.97 | COc1cc(C(=O)n2c(SCc3ccc(F)cc3)nc3ccccc32)cc(OC)c1OC [TP-C1-22] | –
37 | 63.31±0.29 | CC(=O)c1cccc(NC(=O)CSc2nnc(CSCc3ccccc3F)n2C)c1 [TP-C2-49] | –
38 | 84.1±0.44 | Cc1c(C(=O)NC(=S)Nc2ccc(-c3nc4ccccc4s3)cc2)oc2ccccc12 [TP-C2-16] | IC50 [1, 3]: 8.83 ± 0.58 µM
39 | 3.6±13.1 | Cc1cccc(C(=O)Nc2ccc(-c3cc4ccccc4oc3=O)cc2)c1 [TP-C1-12] | –
40 | 68.53±6.25 | COc1ccc(C(=O)NC(=S)Nc2ccc(-c3nc4cc(C)c(C)cc4o3)cc2)cc1OC [TP-C2-8] | –
41 | 65.92±4.36 | COc1ccc(-c2nnc(SC(CC(=O)NCc3ccco3)c3ccc(C)cc3)[nH]2)cc1 (stereo not shown) [TP-C2-45] | –
42 | 36.45±0.94 | Cc1ccccc1OCC(=O)OCC(=O)c1ccc(OCc2ccccc2)cc1 [TP-C2-20] | –
43 | 29.83±0.28 | c1cncc(CN2CN(CC3CCCO3)c3nc4ccccc4n3C2)c1 (racemic) [TP-C1-56] | –
44 | 3.13±1.45 | COc1cccc(C2C(C(=O)c3ccc(C)o3)=C(O)C(=O)N2CCN(C)C)c1 (stereo not shown) [TP-C1-25] | –
45 | 75.19±7.09 | O=C(OCC(=O)c1ccccc1Cl)c1ccc2c(c1)-c1ccccc1C2=O [TP-C2-21] | –
46 | 83.25±0.08 | Cc1ccc2nc(-c3ccc(NC(=S)NC(=O)COc4ccccc4C)cc3)sc2c1 [TP-C2-24] | IC50 [1, 3]: 17.5 ± 1.16 µM
47 | 11.44±0.49 | O=C(CC1c2ccccc2Oc2ccccc21)Nc1ccccn1 [TP-C1-30] | –
48 | 47.23±0.53 | COc1ccc(CNC(=O)CSc2nc3ccc(NC(=O)c4ccccc4C)cc3s2)cc1 [TP-C1-32] | –

Source: PMC5120310, “In Silico Exploration for Novel Type-I Inhibitors of Tie-2/TEK: The Performance of Different Selection Strategy in Selecting Virtual Screening Candidates” (Scientific Reports, 2016)
